Source: PMC9599826, “Selecting Multitarget Peptides for Alzheimer’s Disease” (Biomolecules, 2022)

Test system: human TLR4
Test: TLR4 activation, HEK-Blue hTLR4 SEAP reporter cells
Type: cell-based
Conditions: 24 h, SEAP production
Description: The HEK-Blue hTLR4 cells were used for these experiments as previously described. Cells were cultured in complete growth medium: phenol red-free DMEM high glucose medium supplemented with 1 mM sodium pyruvate, 10% heat-inactivated FBS, 50 U/mL penicillin, 50 μg/mL streptomycin, 1X Glutamax, 100 μg/mL Normocin, and 1X HEK-Blue Selection. All stimulation assays were performed on cells that were passaged 3 to 15 times. Cells were carefully rinsed once with ice-cold PBS to remove residual FBS. Then, 2 mL of pre-warmed PBS was added, and dishes were incubated at 37 °C for 5 min to promote cell detachment. Cells were fully detached from plates with gentle tapping, collected, and centrifuged at 52× g for 5 min. […] In another set of experiments, we determined the effects of peptide candidates on the activation of hTLR4 by S100A9. […] Secreted alkaline phosphatase (SEAP) production was measured in each challenged well by transferring 20 μL of medium to a fresh 96-well plate containing 200 μL of Quanti-Blue detection medium. […] The Quanti-Blue plate was developed at 37 °C, 5% CO2, for 3 h followed by OD recordings at 630 nm using the Synergy2 microplate reader and Gen5 software. […]
Figure 6 TLR4 activation by S100A9 and effects of peptide candidates. (A) SEAP production was measured in cell medium following 24 h incubation with indicated concentrations of ligands. […]

With “S100A9: Recombinant human calcium binding protein S100A9 (C-terminus 8-His tag); known agonist of TLR4, positive control” the “concentration giving maximum receptor stimulation” value was 50 nM and the EC50 (read-out: half maximal effective concentration (EC50) for TLR4 activation) was 0.7 nM.
